Assay results as given in the NIST ThermoML archive (doi:10.1016/j.jct.2018.12.014).
± gives the expanded uncertainty stated by the source.

What was measured:
[1] = refractive index (Na D-line) (dimensionless); conditions: 101 kPa, Liquid, Standard Abbe refractometry
[2] = 101 kPa, Liquid, Vibrating tube method
[3] = wn = mass fraction of the nth substance listed; conditions: 101 kPa, Liquid, Vibrating tube method, w2 = 0
[4] = refractive index (Na D-line) (dimensionless); wn = mass fraction of the nth substance listed; conditions: 101 kPa, Liquid, Standard Abbe refractometry, w2 = 0

CN(CCO)CCO [N-methyldiethanolamine]
Conditions | mass density, [2] [kg/m3] | refractive index, [1]
293.15 K | 1040.31 ± 8.4 | 1.46942 ± 0.0042
298.15 K | 1036.42 ± 8.3 | 1.46732 ± 0.0042
303.15 K | 1032.55 ± 8.3 | 1.46498 ± 0.0042
308.15 K | 1028.7 ± 8.3 | 1.46285 ± 0.0042
313.15 K | 1025.14 ± 8.2 | 1.46099 ± 0.0042
318.15 K | 1021.34 ± 8.2 | 1.45879 ± 0.0042
323.15 K | 1017.55 ± 8.2 | 1.4568 ± 0.0042
328.15 K | 1013.89 ± 8.2 | 1.45461 ± 0.0042
333.15 K | 1010.07 ± 8.1 | 1.45252 ± 0.0042
338.15 K | 1006.37 ± 8.1 | 1.45042 ± 0.0042
343.15 K | 1002.33 ± 8.1 | 1.44855 ± 0.0042
348.15 K | 998.62 ± 8 | –
353.15 K | 995.05 ± 8 | –

CN(CCO)CCO [N-methyldiethanolamine] + C[P+](c1ccccc1)(c1ccccc1)c1ccccc1.[Br-]
Conditions | mass density, [3] [kg/m3] | refractive index, [4]
293.15 K | 1040.31 ± 8.4 | 1.46942 ± 0.0042
298.15 K | 1036.42 ± 8.3 | 1.46732 ± 0.0042
303.15 K | 1032.55 ± 8.3 | 1.46498 ± 0.0042
308.15 K | 1028.7 ± 8.3 | 1.46285 ± 0.0042
313.15 K | 1025.14 ± 8.2 | 1.46099 ± 0.0042
318.15 K | 1021.34 ± 8.2 | 1.45879 ± 0.0042
323.15 K | 1017.55 ± 8.2 | 1.4568 ± 0.0042
328.15 K | 1013.89 ± 8.2 | 1.45461 ± 0.0042
333.15 K | 1010.07 ± 8.1 | 1.45252 ± 0.0042
338.15 K | 1006.37 ± 8.1 | 1.45042 ± 0.0042
343.15 K | 1002.33 ± 8.1 | 1.44855 ± 0.0042
348.15 K | 998.62 ± 8 | –
353.15 K | 995.05 ± 8 | –
